Experimental data reported in the supplement of paper PMC10307832.

Assays:
Test in all cases: relative viability (nuclei count vs DMSO), 5 days (fraction); higher = more cells survive
[1] = compound: CC1=C(C(=O)N2C=CSC2=N1)CCN3CCC(=C(C4=CC=CC=C4)C5=CC=C(C=C5)F)CC3 + Cc1cc(Nc2cc(N3CCN(C)CC3)nc(Sc3ccc(NC(=O)C4CC4)cc3)n2)n[nH]1 [Tozasertib] (partner 0.1 µM)
Method in brief: (§1)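 Relative viability divides the nuclei count in treated wells by that in vehicle wells. Lung cancer cell lines were seeded in 1536-well plates, dosed by pin tool the next day, and fixed and stained after 5 days in one step with final 0.05% Triton X-100, 1% formaldehyde and 1 ug/ml Hoechst. Dosing was a single drug or a fixed anchor-drug dose plus five library-drug doses (not always all listed) in √10 steps, and values are medians of duplicate plates imaged at 4×.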

[2] = compound: CC1=C(C(=O)N2C=CSC2=N1)CCN3CCC(=C(C4=CC=CC=C4)C5=CC=C(C=C5)F)CC3 + Cc1nc(Nc2ncc(C(=O)Nc3c(C)cccc3Cl)s2)cc(N2CCN(CCO)CC2)n1 [Dasatinib] (partner 0.075 µM)
Method in brief: as §1

[3] = compound: CC1=C(C(=O)N2C=CSC2=N1)CCN3CCC(=C(C4=CC=CC=C4)C5=CC=C(C=C5)F)CC3 + Cc1nc(NC(=O)N2CCC[C@H]2C(N)=O)sc1-c1ccnc(C(C)(C)C(F)(F)F)c1 [Alpelisib] (partner 2 µM)
Method in brief: as §1

[4] = compound: CC1=C(C(=O)N2C=CSC2=N1)CCN3CCC(=C(C4=CC=CC=C4)C5=CC=C(C=C5)F)CC3 + CCNC(=O)c1noc(-c2cc(C(C)C)c(O)cc2O)c1-c1ccc(CN2CCOCC2)cc1 [Luminespib] (partner 0.01 µM)
Method in brief: as §1

Cell Line | relative viability ([1]; first compound 0.08 µM) | relative viability ([1]; first compound 0.253 µM) | relative viability ([1]; first compound 0.8 µM) | relative viability ([1]; first compound 2.53 µM) | relative viability ([1]; first compound 8 µM) | relative viability ([2]; first compound 0.08 µM) | relative viability ([2]; first compound 0.253 µM) | relative viability ([2]; first compound 0.8 µM) | relative viability ([2]; first compound 2.53 µM) | relative viability ([2]; first compound 8 µM) | relative viability ([3]; first compound 0.253 µM) | relative viability ([3]; first compound 0.8 µM) | relative viability ([3]; first compound 2.53 µM) | relative viability ([3]; first compound 8 µM) | relative viability ([4]; first compound 0.08 µM) | relative viability ([4]; first compound 0.253 µM) | relative viability ([4]; first compound 0.8 µM) | relative viability ([4]; first compound 2.53 µM) | relative viability ([4]; first compound 8 µM) | relative viability ([3]; first compound 0.08 µM)
HCC-366 | 0.103 | 0.123 | 0.103 | 0.0901 | 0.0622 | 0.697 | 0.631 | 0.711 | 0.545 | 0.247 | 0.428 | 0.471 | 0.605 | 0.243 |  |  |  |  |  | 
HCC-827 | 0.43 | 0.396 | 0.389 | 0.472 | 0.399 | 0.212 | 0.288 | 0.38 | 0.3 | 0.265 | 0.964 | 0.979 | 1.15 | 0.859 | 0.742 | 0.606 | 0.552 | 0.781 | 0.342 | 0.971
HOP-62 | 0.402 | 0.369 | 0.305 | 0.323 | 0.258 | 0.595 | 0.482 | 0.621 | 0.575 | 0.548 | 0.852 | 0.971 | 0.945 | 0.56 | 0.926 | 0.909 | 0.923 | 0.92 | 0.461 | 0.974
IA-LM |  |  |  |  |  |  |  |  |  |  | 0.576 | 0.845 | 0.988 | 0.465 |  |  |  |  |  | 0.554
LC-2-ad | 0.489 | 0.487 | 0.468 | 0.425 | 0.418 | 0.766 | 0.538 | 0.422 | 0.644 | 0.497 | 0.91 | 0.789 | 0.962 | 0.794 | 1.27 | 1.36 | 1.12 | 1.19 | 0.918 | 0.936
LCLC-97TM1 | 0.266 | 0.166 | 0.193 | 0.237 | 0.182 | 0.857 | 0.773 | 0.949 | 0.92 | 0.658 | 0.265 | 0.226 | 0.304 | 0.148 | 0.709 | 0.831 | 0.789 | 0.938 | 0.514 | 0.184
LCLC-103H | 0.437 | 0.449 | 0.451 | 0.486 | 0.532 | 0.498 | 0.409 | 0.439 | 0.424 | 0.339 | 1 | 1.12 | 1.01 | 0.918 | 0.791 | 0.947 | 0.864 | 0.93 | 0.594 | 1.08
LK-2 | 0.176 | 0.188 | 0.172 | 0.161 | 0.174 | 0.273 | 0.249 | 0.354 | 0.282 | 0.268 | 1.19 | 1.23 | 1.08 | 0.773 | 0.154 | 0.21 | 0.186 | 0.191 | 0.162 | 1.24
LOU-NH91 | 0.7 | 0.6 | 0.688 | 0.701 | 0.605 | 0.527 | 0.586 | 0.557 | 0.594 | 0.435 | 0.709 | 0.807 | 0.749 | 0.677 | 0.377 | 0.34 | 0.335 | 0.366 | 0.361 | 0.687
